Experimental data: patent publication US20040156869A1, “2-substituted quinazolin-4-ylamine analogues” (Neurogen Corporation, priority 2002, published 2004)

Target: human capsaicin receptor (VR1) (Homo sapiens, UniProt Q8NER1)
Assay: Capsaicin receptor binding assay ([3H]RTX competition, VR1-transfected HEK293 membranes)

Chain of human capsaicin receptor (VR1) (Q8NER1 whole entry): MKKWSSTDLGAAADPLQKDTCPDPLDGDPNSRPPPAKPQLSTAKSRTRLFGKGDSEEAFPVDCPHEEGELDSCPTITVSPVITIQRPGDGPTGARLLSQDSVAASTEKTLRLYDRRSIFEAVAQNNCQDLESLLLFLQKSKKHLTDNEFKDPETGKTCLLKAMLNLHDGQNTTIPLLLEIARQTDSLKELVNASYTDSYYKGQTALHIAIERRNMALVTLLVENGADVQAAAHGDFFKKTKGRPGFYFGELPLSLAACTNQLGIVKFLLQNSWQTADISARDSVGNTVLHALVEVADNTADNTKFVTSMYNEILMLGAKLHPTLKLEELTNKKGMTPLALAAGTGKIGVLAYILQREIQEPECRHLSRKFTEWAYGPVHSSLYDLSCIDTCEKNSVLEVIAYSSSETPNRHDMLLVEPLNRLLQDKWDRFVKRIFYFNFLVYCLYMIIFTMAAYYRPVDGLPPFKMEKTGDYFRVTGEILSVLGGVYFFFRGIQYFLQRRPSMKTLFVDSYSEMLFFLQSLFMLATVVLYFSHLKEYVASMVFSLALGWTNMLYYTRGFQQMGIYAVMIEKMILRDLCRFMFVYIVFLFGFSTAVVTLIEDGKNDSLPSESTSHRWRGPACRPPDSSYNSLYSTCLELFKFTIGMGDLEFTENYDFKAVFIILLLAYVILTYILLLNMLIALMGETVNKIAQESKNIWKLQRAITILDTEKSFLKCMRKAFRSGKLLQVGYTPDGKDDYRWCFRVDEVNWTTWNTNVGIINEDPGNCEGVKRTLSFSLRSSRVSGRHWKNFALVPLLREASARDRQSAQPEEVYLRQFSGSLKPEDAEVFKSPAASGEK

| Ki | SMILES |
| --- | --- |
| < 1000 nM | CCCCN(CCCC)Cc1nc(Nc2ccc(C(F)(F)F)nc2)c2ccc(-c3ncccc3C(F)(F)F)cc2n1 [Compound 377, [2-Dibutylaminomethyl-7-(3-trifluoromethyl-pyridin-2-yl)-quinazolin-4-yl]-(6-trifluoromethyl-pyridin-3-yl)-amine] |
| < 1000 nM | COCc1nc(Nc2ccc(C(C)C)cc2)c2ncc(-c3ncccc3Cl)cc2n1 [Compound 66, [7-(3-Chloro-pyridin-2-yl)-2-methoxymethyl-pyrido[3,2-d]pyrimidin-4-yl]-(4-isopropyl-phenyl)-amine] |
| < 1000 nM | O=S(=O)(c1ccc(Nc2nc(COCC3CC3)nc3cc(-c4ncccc4C(F)(F)F)ccc23)cc1)N1CCOCC1 [Compound 142, [2-Cyclopropylmethoxymethyl-7-(3-trifluoromethyl-pyridin-2-yl)-quinazolin-4-yl]-[4-(morpholine-4-sulfonyl)-phenyl]-amine] |
| < 1000 nM | O=C(O)C1CCCCN1Cc1nc(Nc2ccc(C(F)(F)F)cc2)c2ccc(-c3ncccc3C(F)(F)F)cc2n1 (centres unmarked) [Compound 737, 1-[4-(4-Trifluoromethyl-phenylamino)-7-(3-trifluoromethyl-pyridin-2-yl)-quinazolin-2-ylmethyl]-piperidine-2-carboxylic acid] |
| < 1000 nM | O=C(NCCN1CCOCC1)c1nc(Nc2ccc(C(F)(F)F)cc2)c2ccc(-c3ncccc3C(F)(F)F)cc2n1 [Compound 709, 4-(4-Trifluoromethyl-phenylamino)-7-(3-trifluoromethyl-pyridin-2-yl)-quinazoline-2-carboxylic acid (2-morpholin-4-yl-ethyl)-amide] |
| < 1000 nM | CCC1CCCCN1CCc1nc(Nc2ccc(C(F)(F)F)cc2)c2ccc(-c3ncccc3C(F)(F)F)cc2n1 (centres unmarked) [Compound 425, [2-(2-Ethyl-piperidin-1-ylethyl)-7-(3-trifluoromethyl-pyridin-2-yl)-quinazolin-4-yl]-(4-trifluoromethyl-phenyl)-amine] |
| < 1000 nM | COCc1nc(Nc2ccc(S(=O)(=O)N3CCOCC3)cc2)c2ccc(-c3ncccc3C(F)(F)F)nc2n1 [Compound 114, [2-Methoxymethyl-7-(3-trifluoromethyl-pyridin-2-yl)-pyrido[2,3-d]pyrimidin-4-yl]-[4-(morpholine-4-sulfonyl)-phenyl]-amine] |
| < 1000 nM | FC(F)(F)c1ccc(Nc2nc(CCCOCc3ccccc3)nc3cc(-c4ncccc4C(F)(F)F)ccc23)cn1 [Compound 13, [2-(3-Benzyloxy-propyl)-7-(3-trifluoromethyl-pyridin-2-yl)-quinazolin-4-yl]-(6-trifluoromethyl-pyridin-3-yl)-amine] |
| < 1000 nM | C[C@@H]1CN(Cc2nc(Nc3ccc(C(C)(C)C)cc3)c3cnc(-c4ccccc4C(F)(F)F)cc3n2)C[C@H](C)O1 [Compound 614, (4-tert-Butyl-phenyl)-[2-(2,6-dimethyl-morpholin-4-ylmethyl)-7-(2-trifluoromethyl-phenyl)-pyrido[4,3-d]pyrimidin-4-yl]-amine (cis)] |

The remaining lines, values behind:

| SMILES | Ki |
| --- | --- |
| CC(C)COCc1nc(Nc2ccc(OC(F)(F)F)cc2)c2ccc(-c3ncccc3C(F)(F)F)nc2n1 [Compound 189, [2-Isobutoxymethyl-7-(3-trifluoromethyl-pyridin-2-yl)-pyrido[2,3-d]pyrimidin-4-yl]-(4-trifluoromethoxy-phenyl)-amine] | < 1000 nM |
| CNC(=O)c1nc(Nc2ccc(C(F)(F)F)cc2)c2ccc(-c3ncccc3C(F)(F)F)cc2n1 [Compound 708, 4-(4-Trifluoromethyl-phenylamino)-7-(3-trifluoromethyl-pyridin-2-yl)-quinazoline-2-carboxylic acid methylamide] | < 1000 nM |
| FC(F)(F)c1ccc(Nc2nc(CCN3CCc4ccccc4C3)nc3cc(-c4ncccc4C(F)(F)F)ccc23)cc1 [Compound 393, [2-[2-(3,4-Dihydro-1H-isoquinolin-2-yl)-ethyl]-7-(3-trifluoromethyl-pyridin-2-yl)-quinazolin-4-yl]-(4-trifluoromethyl-phenyl)-amine] | < 1000 nM |
| CC(C)COCc1nc(Nc2ccc(S(=O)(=O)C(F)(F)F)cc2)c2ccc(-c3ncccc3Cl)nc2n1 [Compound 181, [7-(3-Chloro-pyridin-2-yl)-2-isobutoxymethyl-pyrido[2,3-d]pyrimidin-4-yl]-(4-trifluoromethanesulfonyl-phenyl)-amine] | < 1000 nM |
| CC1(C)CCCN(Cc2nc(Nc3ccc(C(F)(F)F)cc3)c3ccc(-c4ncccc4C(F)(F)F)nc3n2)C1 [Compound 750, [2-(3,3-Dimethyl-piperidin-1-ylmethyl)-7-(3-trifluoromethyl-pyridin-2-yl)-pyrido[2,3-d]pyrimidin-4-yl]-(4-trifluoromethyl-phenyl)-amine] | < 1000 nM |
| C[C@@H]1CN(Cc2nc(Nc3ccc(S(=O)(=O)C(F)(F)F)cc3)c3ccc(-c4ncccc4Cl)cc3n2)C[C@H](C)O1 [Compound 602, [7-(3-Chloro-pyridin-2-yl)-2-(2,6-dimethyl-morpholin-4-ylmethyl)-quinazolin-4-yl]-(4-trifluoromethanesulfonyl-phenyl)-amine (cis)] | < 1000 nM |
| CC(C)N(C)Cc1nc(Nc2ccc(C(F)(F)F)cc2)c2ccc(-c3ncccc3C(F)(F)F)cc2n1 [Compound 338] | < 1000 nM |
| COCc1nc(Nc2ccc(C(C)(C)C#N)cc2)c2ccc(-c3ncccc3Cl)nc2n1 [Compound 62, 2-{4-[7-(3-Chloro-pyridin-2-yl)-2-methoxymethyl-pyrido[2,3-d]pyrimidin-4-ylamino]-phenyl}-2-methyl-propionitrile] | < 1000 nM |
| COCCOCc1nc(Nc2ccc(C(C)(C)C)cc2)c2ccc(-c3ncccc3Cl)nc2n1 [Compound 75, (4-tert-Butyl-phenyl)-[7-(3-chloro-pyridin-2-yl)-2-(2-methoxy-ethoxymethyl)-pyrido[2,3-d]pyrimidin-4-yl]-amine] | < 1000 nM |
| CC(C)COCc1nc(Nc2ccc(Cl)c(C(F)(F)F)c2)c2ccc(-c3ncccc3C(F)(F)F)nc2n1 [Compound 255, (4-Chloro-3-trifluoromethyl-phenyl)-[2-isobutoxymethyl-7-(3-trifluoromethyl-pyridin-2-yl)-pyrido[2,3-d]pyrimidin-4-yl]-amine] | < 1000 nM |
| COCc1nc(Nc2ccc(C(C)(C)C)cc2)c2ccc(-c3ncccc3Cl)nc2n1 [Compound 59, (4-tert-Butyl-phenyl)-[7-(3-chloro-pyridin-2-yl)-2-methoxymethyl-pyrido[2,3-d]pyrimidin-4-yl]-amine] | < 1000 nM |
| CCc1ccc(Nc2nc(COCC(C)C)nc3nc(-c4ncccc4Cl)ccc23)cc1 [Compound 265, [7-(3-Chloro-pyridin-2-yl)-2-isobutoxymethyl-pyrido[2,3-d]pyrimidin-4-yl]-(4-ethyl-phenyl)-amine] | < 1000 nM |
| OCC1CCCN(Cc2nc(Nc3ccc(C(F)(F)F)cc3)c3ccc(-c4ncccc4C(F)(F)F)cc3n2)C1 (centres unmarked) [Compound 502, {1-[4-(4-Trifluoromethyl-phenylamino)-7-(3-trifluoromethyl-pyridin-2-yl)-quinazolin-2-ylmethyl]-piperidin-3-yl}-methanol] | < 1000 nM |
| FC(F)(F)c1ccc(Nc2nc(CN3CCSCC3)nc3cc(-c4ncccc4C(F)(F)F)ccc23)cn1 [Compound 555, [2-Thiomorpholin-4-ylmethyl-7-(3-trifluoromethyl-pyridin-2-yl)-quinazolin-4-yl]-(6-trifluoromethyl-pyridin-3-yl)-amine] | < 1000 nM |
